From US4309425A (priority 1980, dated 1982)
Like-named read-outs stand apart in the source and are kept apart here.

Legend:
Erysiphe cichoracearum [1] = assay: cucumber powdery mildew photostability test; assay type: in vivo; conditions: Golovinomyces cichoracearum, 168 h, xenon arc 3500 foot candles 16 hours, 7 days
Description: (§1) Compounds of this invention are dissolved in acetone in an amount equal to 6% of the final volume and then suspended at a concentration of 20 ppm in purified water containing 25 ppm of the surfactant Alkanol® XC (sodium alkyl naphthalene sulfonate). This suspension is sprayed to the point of run-off in cucumber seedlings. When the foliage is dry, the plants are exposed to 3500 foot candles of light from a xenon arc source for a period of 16 hours. This light source approximates the spectrum of natural sunlight, and is used to assess photostability of the compounds of this invention on plant foliage. The following day, the plants are inoculated with a spore suspension of the fungus Erysiphe cichoracearum and incubated in a growth room for 7 days. Disease ratings are then made.

[2] = test system: Puccinia graminis var. tritici; assay: whole plant or invertebrate; assay type: in vivo; conditions: 192 h, read-out: % control wheat rust in preventive test
[3] = test system: Eggs of the beet armyworm (Spodoptera exigua); assay: beet armyworm egg (ovicidal) test, % eggs failing to hatch; assay type: in vivo; conditions: 72 h, three days, read-out: % Control (% eggs failing to hatch); for mortality at 1 %: 1% in acetone
Description: Eggs of the beet armyworm (Spodoptera exigua), laid on cellophane discs each containing 50-75 eggs, were placed in petri dishes and lightly sprayed with 1% concentrations of the indicated compounds in acetone solution. Three days later, percent control (% eggs failing to hatch) was determined.
Eggs of the beet armyworm (Spodoptera exigua), laid on cellophane discs each containing 50-75 eggs, were placed in petri dishes and lightly sprayed with 200 ppm concentration of the indicated compounds in acetone solution. Three days later, percent control (% eggs failing to hatch) was determined.

Erysiphe cichoracearum [4] = assay: cucumber powdery mildew residual wash-off test; assay type: in vivo; conditions: Golovinomyces cichoracearum, 168 h, 1/2 inch simulated rainfall, 7 days
Description: (§2) Compounds of this invention are dissolved in acetone in an amount equal to 6% of the final volume and then suspended at a concentration of 20 ppm in purified water containing 25 ppm of the surfactant Alkanol® XC (sodium alkyl naphthalene sulfonate). This suspension is sprayed to the point of run-off on cucumber seedlings. The following day, 1/2 inch of simulated rainfall is applied to the foliage of the plants. When the foliage is dry, the plants are inoculated with a spore suspension on the fungus Erysiphe cichoracearum and incubated in a growth room for 7 days. Disease ratings are then made.

[5] = test system: Puccinia graminis var. tritici; assay: whole plant or invertebrate; assay type: in vivo; conditions: 192 h, read-out: % control wheat rust in residual wash-off test
Sclerotinia sclerotiorum = assay: white mold on carrot sections dip test; conditions: 100 ppm dip, 20° C., six days
Description: Surface-sterilized carrot sections were dipped two minutes in a 100 ppm solution of the compounds of this invention. Additional sections were dipped in a check solution which contained 500 ppm Alkanol® XC (sodium alkyl naphthalene sulfonate). After inoculation by placing a mycelial plug of Sclerotinia sclerotiorum on each carrot section, the test was held at 20° C. for six days.
The untreated carrot sections were completely invaded with the mycelial growth of white mold fungus, but the treated sections had little or no growth by this disease causing organism.

Erysiphe cichoracearum [6] = assay: cucumber powdery mildew preventive test; assay type: in vivo; conditions: Golovinomyces cichoracearum, 168 h, 7 days
Description: as §2, with “day,” for “day, 1/2 inch of simulated rainfall is applied to the foliage of the plants. When the foliage is dry,”, “suspension of” for “suspension on”, “made. […] Phytotoxicity in the form of foliar burn or growth reduction was observed on some of the plants in association with disease control.” for “made.”

Venturia inaequalis [7] = assay: apple scab residual wash-off test; assay type: in vivo; conditions: 1/2 inch simulated rainfall, 10-12 days
Description: as §2, with “on apple” for “on cucumber”, “suspension of” for “suspension on”, “fungus Venturia inaequalis” for “fungus Erysiphe cichoracearum”, “for 10-12” for “for 7”, “made. […] Phytotoxicity in the form of foliar burn was observed on the plants in association with disease control.” for “made.”

Rhizoctonia solani = Rhizoctonia solani infested soil test, cotton; assay type: in vivo; conditions: 192 h, 1.5 kg/ha, 8 days
Text: Rhizoctonia solani-infested soil was placed in a 900 cc cup. Compounds of this invention were mixed at a rate of 1.5 kg/ha in a section 2" wide×2" deep×4" long to simulate an in-the-row application. Five cotton seeds were planted in the treated soil. After 8 days, the cotton plants were removed and rated for disease control.

Phytophthora infestans = assay: whole plant or invertebrate; assay type: in vivo; conditions: in Solanum lycopersicum, 96 h, read-out: % control tomato late blight in a photostability test
Erisyphe cichoracearum = assay: cucumber powdery mildew curative test; assay type: in vivo; conditions: Cucumis sativus, 144 h, sprayed day after inoculation, additional 6 days
Text: Cucumber plants are inoculated with a spore suspension of the fungus Erisyphe cichoracearum and in a growth room overnight. The following day, the plants are sprayed to the point of run-off with a suspension prepared by dissolving compounds of this invention in acetone in an amount equal to 6% of the final volume and then suspended at a concentration of 20 ppm in purified water containing 25 ppm of the surfactant Alkanol® XC (sodium alkyl naphthalene sulfonate). Plants are returned to the growth room for an additional 6 days when disease ratings are then made. […] Phytotoxicity in the form of foliar burn or growth reduction was observed on some of the plants in association with disease control.

Venturia inaequalis [8] = assay: apple scab photostability test; assay type: in vivo; conditions: xenon arc 3500 foot candles 16 hours, 10-12 days
Description: as §1, with “on apple” for “in cucumber”, “Venturia inaequalis” for “Erysiphe cichoracearum”, “10-12” for “7”, “made. […] Phytotoxicity in the form of foliar burn was observed on some of the plants in association with disease control.” for “made.”

[9] = test system: Puccinia graminis var. tritici; assay: whole plant or invertebrate; assay type: in vivo; conditions: 192 h, read-out: % control wheat rust in a photostability test

Cc1ccc(S(=O)(=O)N(C)SN(c2cc(C(F)(F)F)ccc2Cl)c2c([N+](=O)[O-])cc([N+](=O)[O-])cc2C(F)(F)F)cc1
pest or weed control at 20 ppm (Erysiphe cichoracearum [1]): 0%
pest or weed control at 20 ppm [2]: 80%
mortality at 1 % [3]: 100%
pest or weed control at 20 ppm (Erysiphe cichoracearum [4]): 92%
pest or weed control at 20 ppm [5]: 100%
% control White Mold (Sclerotinia sclerotiorum): 100%
pest or weed control at 20 ppm (Erysiphe cichoracearum [6]): 100%
pest or weed control at 20 ppm (Venturia inaequalis [7]): 100%
pest or weed control at 1500 g/ha (Rhizoctonia solani): 100%
pest or weed control at 20 ppm (Phytophthora infestans): 50%
pest or weed control at 20 ppm (Erisyphe cichoracearum): 100%
pest or weed control at 20 ppm (Venturia inaequalis [8]): 100%
pest or weed control at 20 ppm [9]: 40%

CCCCN(SN(c1cc(C(F)(F)F)ccc1Cl)c1c([N+](=O)[O-])cc([N+](=O)[O-])cc1C(F)(F)F)S(=O)(=O)c1ccccc1C
pest or weed control at 20 ppm (Erysiphe cichoracearum [1]): 100%
pest or weed control at 20 ppm [2]: 100%
mortality at 1 % [3]: 100%
pest or weed control at 20 ppm (Erysiphe cichoracearum [4]): 100%
pest or weed control at 20 ppm [5]: 100%
% control White Mold (Sclerotinia sclerotiorum): 100%
pest or weed control at 20 ppm (Erysiphe cichoracearum [6]): 100%
pest or weed control at 20 ppm (Venturia inaequalis [7]): 100%
pest or weed control at 1500 g/ha (Rhizoctonia solani): 50%
pest or weed control at 20 ppm (Phytophthora infestans): 90%
pest or weed control at 20 ppm (Erisyphe cichoracearum): 93%
pest or weed control at 20 ppm (Venturia inaequalis [8]): 80%
pest or weed control at 20 ppm [9]: 98%

CCCCN(SN(c1cc(C(F)(F)F)ccc1Cl)c1c([N+](=O)[O-])cc([N+](=O)[O-])cc1C(F)(F)F)S(=O)(=O)c1ccc(C)cc1
pest or weed control at 20 ppm (Erysiphe cichoracearum [1]): 75%
pest or weed control at 20 ppm [2]: 100%
mortality at 200 ppm ([3]; 200 ppm in acetone): 100%
pest or weed control at 20 ppm (Erysiphe cichoracearum [4]): 100%
pest or weed control at 20 ppm [5]: 100%
% control White Mold (Sclerotinia sclerotiorum): 86%
pest or weed control at 20 ppm (Erysiphe cichoracearum [6]): 100%
pest or weed control at 20 ppm (Venturia inaequalis [7]): 100%
pest or weed control at 1500 g/ha (Rhizoctonia solani): 100%
pest or weed control at 20 ppm (Phytophthora infestans): 95%
pest or weed control at 20 ppm (Erisyphe cichoracearum): 92%
pest or weed control at 20 ppm (Venturia inaequalis [8]): 0%
pest or weed control at 20 ppm [9]: 100%
